Read-outs that look alike come from different tables or passages of the source.
Columns and labels:
Experiment in all cases: KinomeScan kinase panel, single concentration 10 µM
Format in all cases: binding
KinomeScan kinase panel [1] = biological target: T1, KinomeScan kinase panel (Homo sapiens, UniProt P22455); settings: FGFR4, 10 µM; read-out: score (%)
T1 construct: purchased DiscoveRx (KinomeScan)

KinomeScan kinase panel [2] = biological target: T2, KinomeScan kinase panel (Homo sapiens, UniProt P35916); settings: FLT4, 10 µM; read-out: score (%)
T2 construct: purchased DiscoveRx (KinomeScan)

KinomeScan kinase panel [3] = biological target: T3, KinomeScan kinase panel (Homo sapiens, UniProt P53671); settings: LIMK2, 10 µM; read-out: score (%)
T3 construct: purchased DiscoveRx (KinomeScan)
T3 sequence (P53671 whole entry): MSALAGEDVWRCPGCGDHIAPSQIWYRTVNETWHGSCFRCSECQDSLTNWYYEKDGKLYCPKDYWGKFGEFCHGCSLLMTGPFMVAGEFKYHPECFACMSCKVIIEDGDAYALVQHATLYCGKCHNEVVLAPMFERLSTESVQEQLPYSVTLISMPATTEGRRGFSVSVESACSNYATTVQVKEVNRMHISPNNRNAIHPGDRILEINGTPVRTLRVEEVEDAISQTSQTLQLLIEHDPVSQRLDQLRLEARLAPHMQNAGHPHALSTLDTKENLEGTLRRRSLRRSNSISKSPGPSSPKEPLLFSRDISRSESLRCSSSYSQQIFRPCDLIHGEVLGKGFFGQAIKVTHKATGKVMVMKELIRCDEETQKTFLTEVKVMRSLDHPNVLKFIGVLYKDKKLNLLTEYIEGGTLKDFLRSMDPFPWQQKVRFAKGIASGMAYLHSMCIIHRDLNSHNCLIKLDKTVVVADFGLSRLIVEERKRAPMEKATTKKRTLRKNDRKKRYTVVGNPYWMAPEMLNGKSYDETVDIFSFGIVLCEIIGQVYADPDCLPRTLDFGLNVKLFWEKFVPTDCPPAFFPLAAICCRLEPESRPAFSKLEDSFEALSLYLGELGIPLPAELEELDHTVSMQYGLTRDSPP

KinomeScan kinase panel [4] = biological target: T4, KinomeScan kinase panel (Homo sapiens, UniProt P48730); settings: CSNK1D, 10 µM; read-out: score (%)
T4 construct: purchased DiscoveRx (KinomeScan)

KinomeScan kinase panel [5] = biological target: T5, KinomeScan kinase panel (Homo sapiens, UniProt Q04912); settings: MST1R, 10 µM; read-out: score (%)
T5 construct: purchased DiscoveRx (KinomeScan)
T5 sequence (Q04912 25-1400): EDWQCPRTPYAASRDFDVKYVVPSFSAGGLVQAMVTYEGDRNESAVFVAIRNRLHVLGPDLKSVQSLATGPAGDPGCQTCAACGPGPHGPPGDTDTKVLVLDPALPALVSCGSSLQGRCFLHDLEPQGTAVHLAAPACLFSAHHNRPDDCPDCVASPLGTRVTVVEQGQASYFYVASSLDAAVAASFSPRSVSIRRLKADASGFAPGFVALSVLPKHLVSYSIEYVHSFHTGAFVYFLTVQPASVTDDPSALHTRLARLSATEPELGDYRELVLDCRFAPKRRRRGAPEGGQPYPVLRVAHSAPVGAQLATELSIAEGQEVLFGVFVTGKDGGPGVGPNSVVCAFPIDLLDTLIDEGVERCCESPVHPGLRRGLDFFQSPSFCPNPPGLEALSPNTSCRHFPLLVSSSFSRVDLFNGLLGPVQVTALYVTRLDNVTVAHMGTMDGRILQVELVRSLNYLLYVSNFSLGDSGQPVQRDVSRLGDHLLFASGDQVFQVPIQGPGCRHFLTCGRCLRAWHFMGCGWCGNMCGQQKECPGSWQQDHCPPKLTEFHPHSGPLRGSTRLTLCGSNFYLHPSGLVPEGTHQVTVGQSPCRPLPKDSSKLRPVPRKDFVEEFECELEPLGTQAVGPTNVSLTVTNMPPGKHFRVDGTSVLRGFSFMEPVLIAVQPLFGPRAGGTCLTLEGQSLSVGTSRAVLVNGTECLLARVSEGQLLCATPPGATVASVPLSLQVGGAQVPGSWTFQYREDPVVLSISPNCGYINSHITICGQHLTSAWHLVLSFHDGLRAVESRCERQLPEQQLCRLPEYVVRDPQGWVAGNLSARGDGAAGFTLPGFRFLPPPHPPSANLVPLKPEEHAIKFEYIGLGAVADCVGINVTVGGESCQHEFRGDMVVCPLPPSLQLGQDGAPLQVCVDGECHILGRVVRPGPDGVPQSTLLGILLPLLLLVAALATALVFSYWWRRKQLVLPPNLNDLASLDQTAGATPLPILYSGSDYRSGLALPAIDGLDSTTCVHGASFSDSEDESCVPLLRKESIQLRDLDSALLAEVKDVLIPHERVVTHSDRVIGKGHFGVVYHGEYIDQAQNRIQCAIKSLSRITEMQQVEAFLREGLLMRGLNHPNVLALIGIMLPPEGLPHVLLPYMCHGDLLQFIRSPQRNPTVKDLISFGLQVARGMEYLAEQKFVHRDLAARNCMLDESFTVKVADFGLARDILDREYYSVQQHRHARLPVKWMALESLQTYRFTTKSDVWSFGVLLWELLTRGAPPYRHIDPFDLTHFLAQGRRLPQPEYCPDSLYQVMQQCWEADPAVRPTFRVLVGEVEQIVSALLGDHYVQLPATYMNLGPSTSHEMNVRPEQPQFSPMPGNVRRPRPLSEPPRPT

KinomeScan kinase panel [6] = biological target: T6, KinomeScan kinase panel (Homo sapiens, UniProt Q96RR4); settings: CAMKK2, 10 µM; read-out: score (%)
T6 construct: purchased DiscoveRx (KinomeScan)

KinomeScan kinase panel [7] = biological target: T7, KinomeScan kinase panel (Homo sapiens, UniProt O00444); settings: read-out: score (%)
T7 construct: purchased DiscoveRx (KinomeScan)
T7 sequence (O00444 1-970): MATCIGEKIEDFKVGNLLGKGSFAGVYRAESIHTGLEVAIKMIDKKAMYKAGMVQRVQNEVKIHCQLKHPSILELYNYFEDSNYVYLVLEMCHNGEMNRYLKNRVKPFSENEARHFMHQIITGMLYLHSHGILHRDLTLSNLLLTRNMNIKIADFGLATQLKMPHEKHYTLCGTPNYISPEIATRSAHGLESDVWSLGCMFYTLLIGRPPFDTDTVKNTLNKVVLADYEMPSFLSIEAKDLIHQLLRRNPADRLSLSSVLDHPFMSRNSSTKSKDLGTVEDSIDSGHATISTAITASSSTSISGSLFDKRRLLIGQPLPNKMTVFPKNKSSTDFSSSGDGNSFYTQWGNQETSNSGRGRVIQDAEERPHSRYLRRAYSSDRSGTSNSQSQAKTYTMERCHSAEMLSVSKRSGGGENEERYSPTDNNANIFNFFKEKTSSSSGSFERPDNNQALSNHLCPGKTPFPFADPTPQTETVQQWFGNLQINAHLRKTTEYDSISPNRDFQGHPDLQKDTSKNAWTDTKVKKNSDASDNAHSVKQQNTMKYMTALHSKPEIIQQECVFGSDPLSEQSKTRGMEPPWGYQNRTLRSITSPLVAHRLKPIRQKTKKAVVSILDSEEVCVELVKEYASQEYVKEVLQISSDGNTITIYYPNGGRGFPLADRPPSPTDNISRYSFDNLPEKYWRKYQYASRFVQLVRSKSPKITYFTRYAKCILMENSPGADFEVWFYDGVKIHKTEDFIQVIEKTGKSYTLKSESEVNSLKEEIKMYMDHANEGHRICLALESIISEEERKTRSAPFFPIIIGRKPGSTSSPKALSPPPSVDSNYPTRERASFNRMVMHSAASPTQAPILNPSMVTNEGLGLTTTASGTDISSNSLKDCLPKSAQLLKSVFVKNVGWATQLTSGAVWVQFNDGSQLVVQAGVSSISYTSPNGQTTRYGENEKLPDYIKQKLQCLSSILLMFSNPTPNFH

KinomeScan kinase panel [8] = biological target: T8, KinomeScan kinase panel (Homo sapiens, UniProt O96013); settings: PAK4, 10 µM; read-out: score (%)
T8 construct: purchased DiscoveRx (KinomeScan)
T8 sequence (O96013 whole entry): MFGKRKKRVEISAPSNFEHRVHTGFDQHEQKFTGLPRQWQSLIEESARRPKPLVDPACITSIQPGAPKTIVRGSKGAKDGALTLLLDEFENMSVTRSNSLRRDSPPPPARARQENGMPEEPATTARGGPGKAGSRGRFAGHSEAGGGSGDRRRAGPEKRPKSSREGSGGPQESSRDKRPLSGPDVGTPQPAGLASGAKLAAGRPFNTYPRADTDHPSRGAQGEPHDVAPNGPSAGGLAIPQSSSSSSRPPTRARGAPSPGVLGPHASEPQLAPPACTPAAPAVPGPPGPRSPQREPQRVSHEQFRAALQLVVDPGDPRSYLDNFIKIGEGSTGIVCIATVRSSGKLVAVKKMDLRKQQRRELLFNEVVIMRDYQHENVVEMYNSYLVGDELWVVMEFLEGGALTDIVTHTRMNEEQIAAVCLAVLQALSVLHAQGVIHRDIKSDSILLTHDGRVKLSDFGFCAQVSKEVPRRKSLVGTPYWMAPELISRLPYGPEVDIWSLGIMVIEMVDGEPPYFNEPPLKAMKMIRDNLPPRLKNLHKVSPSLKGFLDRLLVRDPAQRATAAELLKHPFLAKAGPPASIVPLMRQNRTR

KinomeScan kinase panel [9] = biological target: T9, KinomeScan kinase panel (Homo sapiens, UniProt Q9P2K8, S808G); settings: GCN2(Kin.Dom.2.S808G), 10 µM; read-out: score (%)
T9 construct: purchased DiscoveRx (KinomeScan)
T9 sequence (Q9P2K8 whole entry S808G): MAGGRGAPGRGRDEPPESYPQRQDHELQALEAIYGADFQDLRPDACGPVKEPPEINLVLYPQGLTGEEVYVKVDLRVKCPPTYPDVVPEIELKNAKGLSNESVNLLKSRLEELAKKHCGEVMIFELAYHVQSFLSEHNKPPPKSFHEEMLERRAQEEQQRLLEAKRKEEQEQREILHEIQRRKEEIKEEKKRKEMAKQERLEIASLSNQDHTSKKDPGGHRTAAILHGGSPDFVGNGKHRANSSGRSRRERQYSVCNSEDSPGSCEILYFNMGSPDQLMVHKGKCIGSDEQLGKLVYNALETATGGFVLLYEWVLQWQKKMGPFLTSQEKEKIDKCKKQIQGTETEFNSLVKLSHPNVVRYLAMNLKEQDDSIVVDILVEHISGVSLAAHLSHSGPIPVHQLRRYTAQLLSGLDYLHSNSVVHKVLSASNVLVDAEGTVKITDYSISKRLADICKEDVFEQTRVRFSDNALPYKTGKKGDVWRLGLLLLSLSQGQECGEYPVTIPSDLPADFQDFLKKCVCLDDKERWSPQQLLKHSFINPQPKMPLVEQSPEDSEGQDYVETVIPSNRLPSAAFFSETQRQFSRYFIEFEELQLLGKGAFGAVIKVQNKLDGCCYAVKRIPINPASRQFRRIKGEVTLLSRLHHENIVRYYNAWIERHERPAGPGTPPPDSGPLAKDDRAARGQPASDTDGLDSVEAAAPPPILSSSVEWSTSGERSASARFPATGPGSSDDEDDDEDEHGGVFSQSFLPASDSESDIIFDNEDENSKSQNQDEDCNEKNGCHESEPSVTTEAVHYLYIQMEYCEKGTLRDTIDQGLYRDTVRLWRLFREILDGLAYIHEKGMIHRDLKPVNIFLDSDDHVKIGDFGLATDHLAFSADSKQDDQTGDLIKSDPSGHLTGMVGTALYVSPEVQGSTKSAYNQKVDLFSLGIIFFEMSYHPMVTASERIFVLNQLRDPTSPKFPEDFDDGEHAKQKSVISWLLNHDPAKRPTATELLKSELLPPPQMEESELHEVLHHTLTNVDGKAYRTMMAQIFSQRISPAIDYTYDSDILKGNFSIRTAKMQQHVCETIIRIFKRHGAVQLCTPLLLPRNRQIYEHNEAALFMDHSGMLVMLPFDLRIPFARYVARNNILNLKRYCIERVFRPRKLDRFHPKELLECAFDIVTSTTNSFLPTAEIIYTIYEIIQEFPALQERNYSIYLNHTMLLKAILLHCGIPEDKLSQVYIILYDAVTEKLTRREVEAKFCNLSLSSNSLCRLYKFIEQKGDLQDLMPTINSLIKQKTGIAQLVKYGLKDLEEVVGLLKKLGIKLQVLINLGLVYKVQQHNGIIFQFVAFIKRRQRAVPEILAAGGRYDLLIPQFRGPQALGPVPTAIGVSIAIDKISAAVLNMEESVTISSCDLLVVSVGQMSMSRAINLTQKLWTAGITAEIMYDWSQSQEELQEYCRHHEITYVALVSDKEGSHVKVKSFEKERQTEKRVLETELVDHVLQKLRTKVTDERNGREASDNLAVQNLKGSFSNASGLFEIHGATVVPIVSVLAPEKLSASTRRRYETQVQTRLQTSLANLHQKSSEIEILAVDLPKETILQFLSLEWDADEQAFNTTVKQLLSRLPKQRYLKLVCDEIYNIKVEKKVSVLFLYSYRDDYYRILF

KinomeScan kinase panel [10] = biological target: T10, KinomeScan kinase panel (Homo sapiens, UniProt P35590); settings: read-out: score (%)
T10 construct: purchased DiscoveRx (KinomeScan)

KinomeScan kinase panel [11] = biological target: T11, KinomeScan kinase panel (Homo sapiens, UniProt Q86YV6); settings: read-out: score (%)
T11 construct: purchased DiscoveRx (KinomeScan)
T11 sequence (Q86YV6 1-388): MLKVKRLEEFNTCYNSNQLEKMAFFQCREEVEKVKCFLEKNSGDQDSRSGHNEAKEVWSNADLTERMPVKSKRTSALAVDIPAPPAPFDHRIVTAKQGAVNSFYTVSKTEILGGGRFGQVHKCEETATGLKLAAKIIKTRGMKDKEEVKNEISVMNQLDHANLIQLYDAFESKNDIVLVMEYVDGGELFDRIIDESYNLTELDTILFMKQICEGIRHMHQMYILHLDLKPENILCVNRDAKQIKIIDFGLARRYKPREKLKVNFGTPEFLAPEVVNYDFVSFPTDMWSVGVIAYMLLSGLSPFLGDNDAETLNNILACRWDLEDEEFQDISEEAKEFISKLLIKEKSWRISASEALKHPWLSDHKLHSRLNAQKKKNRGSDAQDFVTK

KinomeScan kinase panel [12] = biological target: T12, KinomeScan kinase panel (Homo sapiens, UniProt Q15569); settings: read-out: score (%)
T12 construct: purchased DiscoveRx (KinomeScan)
T12 sequence (Q15569 whole entry): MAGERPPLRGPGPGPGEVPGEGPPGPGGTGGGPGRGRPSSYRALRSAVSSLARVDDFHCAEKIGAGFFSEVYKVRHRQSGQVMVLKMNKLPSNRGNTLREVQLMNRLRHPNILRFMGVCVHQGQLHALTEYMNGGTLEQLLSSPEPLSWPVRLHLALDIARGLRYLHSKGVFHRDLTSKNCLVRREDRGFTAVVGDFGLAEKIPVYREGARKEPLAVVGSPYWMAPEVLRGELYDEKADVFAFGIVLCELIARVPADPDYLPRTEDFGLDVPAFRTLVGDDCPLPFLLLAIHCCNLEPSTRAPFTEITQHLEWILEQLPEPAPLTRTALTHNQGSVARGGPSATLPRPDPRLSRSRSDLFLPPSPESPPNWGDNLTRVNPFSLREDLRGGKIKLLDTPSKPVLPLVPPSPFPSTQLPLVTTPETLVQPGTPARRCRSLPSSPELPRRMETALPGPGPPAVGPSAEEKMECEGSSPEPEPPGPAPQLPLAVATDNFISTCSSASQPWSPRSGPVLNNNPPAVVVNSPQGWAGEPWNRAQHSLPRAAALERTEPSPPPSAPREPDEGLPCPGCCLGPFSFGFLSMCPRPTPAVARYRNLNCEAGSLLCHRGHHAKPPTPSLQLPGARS

KinomeScan kinase panel [13] = biological target: T13, KinomeScan kinase panel (Homo sapiens, UniProt Q14012); settings: CAMK1, 10 µM; read-out: score (%)
T13 construct: purchased DiscoveRx (KinomeScan)

KinomeScan kinase panel [14] = biological target: T14, KinomeScan kinase panel (Homo sapiens, UniProt P42684); settings: ABL2, 10 µM; read-out: score (%)
T14 construct: purchased DiscoveRx (KinomeScan)

KinomeScan kinase panel [15] = biological target: T15, KinomeScan kinase panel (Homo sapiens, UniProt P45984); settings: JNK2, 10 µM
T15 construct: purchased DiscoveRx (KinomeScan)

CCN1CCN(Cc2ccc(NC(=O)c3ccc(C)c(NC(=O)c4cncc(-c5cccs5)c4)c3)cc2C(F)(F)F)CC1 [ALW-II-41-27]
remaining binding at 10 µM (KinomeScan kinase panel [1]): 8.7%
remaining binding at 10 µM (KinomeScan kinase panel [2]): 0%
remaining binding at 10 µM (KinomeScan kinase panel [3]): 31%
remaining binding at 10 µM (KinomeScan kinase panel [4]): 5%
remaining binding at 10 µM (KinomeScan kinase panel [5]): > 30%
remaining binding at 10 µM (KinomeScan kinase panel [6]): > 30%
remaining binding at 10 µM (KinomeScan kinase panel [7]; PLK4, 10 µM): > 30%
remaining binding at 10 µM (KinomeScan kinase panel [8]): > 30%
remaining binding at 10 µM (KinomeScan kinase panel [9]): 0.3%
remaining binding at 10 µM (KinomeScan kinase panel [10]; kinase TIE1, 10 µM): 1.4%
remaining binding at 10 µM (KinomeScan kinase panel [11]; kinase SgK085, 10 µM): > 30%
remaining binding at 10 µM (KinomeScan kinase panel [12]; kinase TESK1, 10 µM): > 30%
remaining binding at 10 µM (KinomeScan kinase panel [13]): > 30%
remaining binding at 10 µM (KinomeScan kinase panel [14]): 0.1%
score (%) (KinomeScan kinase panel [15]): 0.25%

CCN1CCN(Cc2ccc(NC(=O)c3ccc(C)c(C#Cc4cccnc4)c3)cc2C(F)(F)F)CC1 [XMD15-44]
remaining binding at 10 µM (KinomeScan kinase panel [1]): 0%
remaining binding at 10 µM (KinomeScan kinase panel [2]): 0%
remaining binding at 10 µM (KinomeScan kinase panel [3]): 11%
remaining binding at 10 µM (KinomeScan kinase panel [4]): 29%
remaining binding at 10 µM (KinomeScan kinase panel [5]): > 30%
remaining binding at 10 µM (KinomeScan kinase panel [6]): 7.8%
remaining binding at 10 µM (KinomeScan kinase panel [7]; kinase PLK4, 10 µM): 88%
remaining binding at 10 µM (KinomeScan kinase panel [8]): 100%
remaining binding at 10 µM (KinomeScan kinase panel [9]): 1.3%
remaining binding at 10 µM (KinomeScan kinase panel [10]; kinase TIE1, 10 µM): 1.6%
remaining binding at 10 µM (KinomeScan kinase panel [11]; MYLK4, 10 µM): > 30%
remaining binding at 10 µM (KinomeScan kinase panel [12]; kinase TESK1, 10 µM): 60%
remaining binding at 10 µM (KinomeScan kinase panel [13]): > 30%
remaining binding at 10 µM (KinomeScan kinase panel [14]): 0.05%
score (%) (KinomeScan kinase panel [15]): 0%

CCN1CCN(Cc2ccc(NC(=O)c3ccc(C)c(/C=C/c4cnc5[nH]ccc5c4Cl)c3)cc2C(F)(F)F)CC1 [HG-6-63-01, (E)-3-(2-(4-chloro-1H-pyrrolo[2,3-b]pyridin-5-yl)vinyl)-N-(4-((4-ethylpiperazin-1-yl)methyl)-3-(trifluoromethyl)phenyl)-4-methylbenzamide]
remaining binding at 10 µM (KinomeScan kinase panel [1]): 0.2%
remaining binding at 10 µM (KinomeScan kinase panel [2]): 0.15%
remaining binding at 10 µM (KinomeScan kinase panel [3]): 6.6%
remaining binding at 10 µM (KinomeScan kinase panel [4]): > 30%
remaining binding at 10 µM (KinomeScan kinase panel [5]): > 30%
remaining binding at 10 µM (KinomeScan kinase panel [6]): > 30%
remaining binding at 10 µM (KinomeScan kinase panel [7]; PLK4, 10 µM): > 30%
remaining binding at 10 µM (KinomeScan kinase panel [8]): > 30%
remaining binding at 10 µM (KinomeScan kinase panel [9]): 0.95%
remaining binding at 10 µM (KinomeScan kinase panel [10]; TIE1, 10 µM): 1.2%
remaining binding at 10 µM (KinomeScan kinase panel [11]; SgK085, 10 µM): 8.5%
remaining binding at 10 µM (KinomeScan kinase panel [12]; TESK1, 10 µM): 4.2%
remaining binding at 10 µM (KinomeScan kinase panel [13]): > 30%
remaining binding at 10 µM (KinomeScan kinase panel [14]): 0.1%
score (%) (KinomeScan kinase panel [15]): 1.1%
